The target of this assay is T1, ENPP1 (Homo sapiens, UniProt P22413).
T1 sequence (P22413 1-925): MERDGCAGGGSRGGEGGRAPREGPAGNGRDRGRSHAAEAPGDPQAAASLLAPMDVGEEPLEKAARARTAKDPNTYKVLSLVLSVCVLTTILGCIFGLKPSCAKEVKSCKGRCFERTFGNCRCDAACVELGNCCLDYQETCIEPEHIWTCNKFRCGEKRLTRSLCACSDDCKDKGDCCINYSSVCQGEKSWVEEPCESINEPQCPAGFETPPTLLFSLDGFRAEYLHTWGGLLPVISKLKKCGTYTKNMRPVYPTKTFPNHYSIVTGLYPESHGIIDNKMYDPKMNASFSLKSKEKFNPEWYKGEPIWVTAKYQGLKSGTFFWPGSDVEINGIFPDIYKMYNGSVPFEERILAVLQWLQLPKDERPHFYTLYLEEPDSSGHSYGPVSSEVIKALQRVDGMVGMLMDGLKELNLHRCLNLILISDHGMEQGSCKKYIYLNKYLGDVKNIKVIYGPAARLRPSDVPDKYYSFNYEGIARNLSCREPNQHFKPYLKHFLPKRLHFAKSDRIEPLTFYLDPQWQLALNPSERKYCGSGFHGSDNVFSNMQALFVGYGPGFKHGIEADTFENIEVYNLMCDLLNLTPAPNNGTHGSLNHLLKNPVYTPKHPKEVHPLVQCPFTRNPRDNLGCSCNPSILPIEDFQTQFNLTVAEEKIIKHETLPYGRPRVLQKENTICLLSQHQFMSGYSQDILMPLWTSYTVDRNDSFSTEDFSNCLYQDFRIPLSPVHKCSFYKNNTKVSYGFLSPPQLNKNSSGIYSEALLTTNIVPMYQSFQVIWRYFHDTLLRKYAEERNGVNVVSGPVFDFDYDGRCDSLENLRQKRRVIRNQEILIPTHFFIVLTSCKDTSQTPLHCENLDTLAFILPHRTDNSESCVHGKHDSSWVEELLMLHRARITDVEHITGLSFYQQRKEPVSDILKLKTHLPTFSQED
In words: Measurement of pNP-TMP hydrolysis by ENPP1. Format: biochemical. Particulars: pNP-TMP substrate 500 μM, Km 232 μM; Ki from IC50 by Cheng-Prusoff. As to the method: Measurement of pNP-TMP hydrolysis by ENPP1
p-Nitrophenyl thymidine 5′-monophosphate (pNP-TMP) is a synthesized substrate for ENPP1. The ENPP1 enzyme activity assay with pNP-TMP substrate was conducted as follows:
First, in a 60 μl reaction, 7.5 ng purified ENPP1 was mixed with 1.2 μl compounds of Formula (I) (test compound) ranging from 13.7 nM to 10 μM. Incubation of ENPP1 with compounds was set at 25° C. for 10 min. Reactions with DMSO only (with ENPP1 but no compound) gave the fastest reaction (MAX Activity). For each compound dilution, wells with assay buffer (50 mM Tris -HCl, pH8.8, 250 mM NaCl, 0.1 mg/ml BSA) and test compounds but no ENPP1 were included as controls for the subtraction of test compound derived absorbance at 405 nm.
Second, after 10 minutes incubation of ENPP1 and test compound, the assay was initiated by transferring 50 μl of the above mentioned ENPP1/test compound reaction into 50 μl of 1 mM pNP-TMP in assay buffer results in a 100 μl total reaction in non-binding surface clear bottom 96 well plates. Absorbance at 405 nm was recorded immediately in kinetic mode by PerkinElmer 2300 Enspire multimode plate reader.
For each inhibitor, the specific ENPP1 activity was calculated using the following equation: ENPP1 activity (pmol/min/μg)=Adjusted Vmax (OD405 nm/min) X conversion factor (pmol/OD405 nm)/amount of enzyme (μg)
Adjusted Vmax=V0X (Km+(S))/(S). In this assay, Km=232 μM, (S)=500 μM. Adjusted Vmax=1.464 X V0.
V0=(OD405 nm with ENPP1-OD405 nm ENPP1 blank)/minutes. OD405 nm was plotted, with blank subtracted, against time (minutes), the initial linear rate is V0.
The conversion factor (pmol/OD405 nm), was determined by plotting the amount of standard, 4-Nitrophenol (Sigma -Aldrich, Catalog #241326), against absorbance at 405 nm. The slope is the conversion factor. The percent ENPP1 activity for each sample was calculated using the following equation: […]
To determine the IC50 for each compound, compound concentration values and percent enzyme activity values were inserted into GraphPad Prism (GraphPad Prism version 9.0 for Windows, GraphPad Software, La Jolla California USA, www.graphpad.com), and Prism's Transform analysis was used to convert the x-axis values (compound concentration) to logarithms. A sigmoidal variable slope nonlinear regression analysis was performed using the following equation: Y=Bottom+ (Top-Bottom)/(1+10^((Log IC50″X) *HillSlope)).
Ki values for each compound were calculated from the observed IC50 from GraphPad analysis using the Cheng-Prusoff equation: Ki=IC50/(1+(S)/KM). (S) here is 500 μM and KM is determined to be 232 μM.

SMILES strings stand for the structures. Some results are limits rather than exact numbers.

From patent US20250320204A1 (RIBOSCIENCE LLC, priority 2023, published 2025) come the findings set out here.

In general, Ki refers to a measure of affinity in units of concentration, obtained from inhibition or displacement. Lower therefore signals a stronger hold on the target. Molecule `CS(=N)(=O)CC1CC2(C1)CN(c1ncnc3c(O)nccc13)C2` (single isomer, unassigned) [Example 2b, ((2-(8-hydroxypyrido[3,4-d]pyrimidin-4-yl)-2-azaspiro[3.3]heptan-6-yl)methyl) (imino)(methyl)-lambda6-sulfanone] showed a Ki of 10 to 100 nM.
`N=[S@](=O)(c1cccc(COc2ccnc3c(OCF)nccc23)c1)C1CC1` (single isomer, unassigned) [Example 42] registered a Ki of 10 to 100 nM.
With `COc1nccc2c(OCc3cc(F)cc([S@](=N)(=O)C4CC4)c3)ccnc12` (single isomer, unassigned) [Example 68], the inhibitory constant (Ki) is below 10 nM.
On to `COc1nccc2c(OCc3cc(F)cc([S@](C)(=N)=O)c3)ccnc12` (single isomer, unassigned) [Example 70], for which the inhibition constant (Ki) fell in the range of 10 to 100 nM.
In turn, `C[S@@](=N)(=O)c1cccc(COc2ccnc3c(OCF)nccc23)c1` (single isomer, unassigned) [Example 78] displayed a Ki of 10 to 100 nM.
Take `CS(=N)(=O)CC1CC2(C1)CN(c1ccnc3cnccc13)C2` (stereo not drawn) [Example 1, imino(methyl) [[2-(1,7-naphthyridin-4-yl)-2-azaspiro[3.3]heptan-6-yl]methyl]-lambda6-sulfanone]: the Ki is below 10 nM.
To `COc1nccc2c(N3CC(CCCS(C)(=N)=O)C3)ccnc12` (stereo not drawn) [Example 3, imino (3-(1-(8-methoxy-1,7-naphthyridin-4-yl)azetidin-3-yl)propyl)(methyl)-lambda6-sulfanone] belongs below 10 nM.
To `COc1nccc2c(N3CCC(O)(CS(=N)(=O)C4CC4)CC3)ccnc12` (stereo not drawn) [Example 4, cyclopropyl((4-hydroxy-1-(8-methoxy-1,7-naphthyridin-4-yl)piperidin-4-yl)-methyl) (imino)-lambda6-sulfanone] belongs below 10 nM; to `CS(=N)(=O)c1ccc(COc2ccnc3cnccc23)cc1` (stereo not drawn) [Example 7], 10 to 100 nM; to `COc1nccc2c(OCc3cccc([S@](=N)(=O)C4CC4)c3)ccnc12` [Example 17a, (R)-Cyclopropyl(imino)(3-(((8-methoxy-1,7-naphthyridin-4-yl)oxy)methyl)phenyl)-lambda6-sulfanone], 10 to 100 nM.
The molecule `COc1nccc2c(N3CCC4(C3)CN(S(C)(=N)=O)C4)ccnc12` (stereo not drawn) [Example 44, 8-methoxy-4-(2-(S-methylsulfonimidoyl)-2,6-diazaspiro(3.4)octan-6-yl)-1,7-naphthyridine] yielded an inhibition constant (Ki) below 10 nM.
To `COc1nccc2c(N3CC4(CCN(S(C)(=N)=O)C4)C3)ccnc12` (stereo not drawn) [Example 45, 8-methoxy-4-(6-(S-methylsulfonimidoyl)-2,6-diazaspiro(3.4)octan-2-yl)-1,7-naphthyridine] belongs below 10 nM; to `CCOc1nccc2c(N3CCC(O)(CS(C)(=N)=O)CC3)ccnc12` (stereo not drawn) [Example 46, ((1-(8-ethoxy-1,7-naphthyridin-4-yl)-4-hydroxypiperidin-4-yl)methyl) (imino)-(methyl)-lambda6-sulfanone], below 10 nM.
To `COc1nccc2c(Oc3ccc(S(C)(=N)=O)cc3)ccnc12` (stereo not drawn) [Example 50, imino (4-((8-methoxy-1,7-naphthyridin-4-yl)oxy)phenyl)(methyl)-lambda6-sulfanone] belongs below 10 nM.
To `COc1nccc2c(Oc3cccc(S(C)(=N)=O)c3)ccnc12` (stereo not drawn) [Example 51, imino (3-((8-methoxy-1,7-naphthyridin-4-yl)oxy)phenyl)(methyl)-lambda6-sulfanone] belongs 100 to 10000 nM.
For the molecule `CS(=N)(=O)CC1(O)CCN(c2ccnc3c(OC4CC4)nccc23)CC1` (stereo not drawn) [Example 52, ((1-(8-cyclopropoxy-1,7-naphthyridin-4-yl)-4-hydroxypiperidin-4-yl)methyl) (imino)(methyl)-lambda6-sulfanone], the Ki lay in the range of 10 to 100 nM.
In the case of `CN=S(C)(=O)N1CCC2(CCN(c3ccnc4c(OC)nccc34)C2)CC1` (stereo not drawn) [Example 53, ((2-(8-methoxy-1,7-naphthyridin-4-yl)-2,8-diazaspiro(4.5)decan-8-yl)(methyl)oxo-lambda6-sulfanylidene)(methyl)amine] it was 100 to 10000 nM; in that of `CN=S(C)(=O)N1CCC2(CCN(c3ccnc4c(OC)nccc34)C2)C1` (stereo not drawn) [Example 54, ((7-(8-methoxy-1,7-naphthyridin-4-yl)-2,7-diazaspiro(4.4)nonan-2-yl)(methyl)oxo-lambda6-sulfanylidene)(methyl)amine], 100 to 10000 nM; in that of `CN=S(=O)(c1cccc(COc2ccnc3c(OC)nccc23)c1)C1CC1` (stereo not drawn) [Example 55, cyclopropyl(3-(((8-methoxy-1,7-naphthyridin-4-yl)oxy)methyl)phenyl)(methylimino)-lambda6-sulfanone], 100 to 10000 nM.
The molecule `CN=S(=O)(c1cccc(COc2ncnc3c(OC)nccc23)c1)C1CC1` (stereo not drawn) [Example 56, cyclopropyl(3-(((8-methoxypyrido[3,4-d]pyrimidin-4-yl)oxy)methyl)phenyl)-(methylimino)-lambda6-sulfanone] displayed an inhibition constant Ki of 100 to 10000 nM.
In the case of `CN=S(C)(=O)CC1(O)CCN(c2ccnc3c(OC)nccc23)CC1` (stereo not drawn) [Example 57, ((4-hydroxy-1-(8-methoxy-1,7-naphthyridin-4-yl)piperidin-4-yl)methyl)(methyl)-(methylimino)-lambda6-sulfanone] it was below 10 nM; in that of `CN=S(C)(=O)CC1CC2(C1)CN(c1ccnc3c(OC)nccc13)C2` (stereo not drawn) [Example 58, ((2-(8-methoxy-1,7-naphthyridin-4-yl)-2-azaspiro(3.3)heptan-6-yl)methyl-methyl)(methylimino)-lambda6-sulfanone], 100 to 10000 nM.
In the case of `COc1nccc2c(OCc3cc(S(=N)(=O)C4CC4)ccc3F)ccnc12` (stereo not drawn) [Example 59, cyclopropyl(4-fluoro-3-(((8-methoxy-1,7-naphthyridin-4-yl)oxy)methyl)-phenyl) (imino)-lambda6-sulfanone] it was below 10 nM; in that of `N=S(=O)(c1cccc(COc2ccnc3c(OC4CC4)nccc23)c1)C1CC1` (stereo not drawn) [Example 60, (3-(((8-cyclopropoxy-1,7-naphthyridin-4-yl)oxy)methyl)phenyl)-(cyclopropyl) (imino)-lambda6-sulfanone], 100 to 10000 nM; in that of `CC(C)Oc1nccc2c(OCc3cccc(S(=N)(=O)C4CC4)c3)ccnc12` (stereo not drawn) [Example 61, cyclopropyl(imino) (3-(((8-isopropoxy-1,7-naphthyridin-4-yl)oxy)methyl)phenyl)-lambda6-sulfanone], 100 to 10000 nM.
To `CCCOc1nccc2c(OCc3cccc(S(=N)(=O)C4CC4)c3)ccnc12` (stereo not drawn) [Example 62, cyclopropyl(imino) (3-(((8-propoxy-1,7-naphthyridin-4-yl)oxy)methyl)phenyl)-lambda6-sulfanone] belongs 100 to 10000 nM; to `CS(=N)(=O)CCC1(O)CCN(c2ccnc3c(OCF)nccc23)CC1` (stereo not drawn) [Example 63, (2-(1-(8-(fluoromethoxy)-1,7-naphthyridin-4-yl)-4-hydroxypiperidin-4-yl)ethyl)-(imino)(methyl)-lambda6-sulfanone], 10 to 100 nM.
